Several values for one entry are separate records, joined by “and”; a condition that tells them apart may be missing. Identical values can stand only once. Inconclusive results and toxic doses are left out.
Test system: L1210 leukemia ip in BDF1 mice, survival T/C
Test: NCI In Vivo Anticancer Drug Screen. Data for tumor model L1210 Leukemia (intraperitoneal) in B6D2F1 (BDF1) mice
Conditions: endpoint: mean survival time, higher = longer survival
Summary of the method: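 Mice bearing the transplanted tumor received compound or vehicle. Survival of the treated group was divided by that of the vehicle-treated control group to give the ratio.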

[1] = dose: 100.0 mg/kg/injection, schedule: Q04DX003 (ip), vehicle: saline with Tween-80
[2] = dose: 200.0 mg/kg/injection, schedule: Q04DX003 (ip), vehicle: saline with Tween-80
[3] = dose: 400.0 mg/kg/injection, schedule: Q04DX003 (ip), vehicle: saline with Tween-80
[4] = dose: 100.0 mg/kg/injection, schedule: Q01DX001 (ip), vehicle: saline
[5] = dose: 200.0 mg/kg/injection, schedule: Q01DX001 (ip), vehicle: saline
[6] = dose: 100.0 mg/kg/injection, schedule: Q01DX001 (ip), vehicle: saline with Tween-80
[7] = dose: 200.0 mg/kg/injection, schedule: Q01DX001 (ip), vehicle: saline with Tween-80
[8] = dose: 400.0 mg/kg/injection, schedule: Q01DX001 (ip), vehicle: saline with Tween-80
[9] = dose: 100.0 mg/kg/injection, schedule: Q01DX009 (ip), vehicle: saline with Tween-80
[10] = dose: 200.0 mg/kg/injection, schedule: Q01DX009 (ip), vehicle: saline with Tween-80
[11] = dose: 400.0 mg/kg/injection, schedule: Q01DX009 (ip), vehicle: saline with Tween-80

O=C(/C(=N\N=C\c1c(O)ccc2ccccc12)c1ccccc1)c1ccccc1
T/C [1]: 96 % of control | T/C [2]: 98 % of control | T/C [3]: 94 % of control

O=NN(CCCl)C(=O)N[C@H]1CCCC[C@H]1Cl
T/C (dose: 12.0 mg/kg/injection, schedule: Q01DX001 (ip), vehicle: carboxymethylcellulose (CMC)): 108 % of control | T/C (dose: 16.0 mg/kg/injection, schedule: Q01DX001 (ip), vehicle: carboxymethylcellulose (CMC)): 175 % of control | T/C (dose: 31.0 mg/kg/injection, schedule: Q01DX001 (ip), vehicle: carboxymethylcellulose (CMC)): 180 % of control | T/C (dose: 36.0 mg/kg/injection, schedule: Q01DX001 (ip), vehicle: carboxymethylcellulose (CMC)): 177 % of control | T/C (dose: 40.0 mg/kg/injection, schedule: Q01DX001 (ip), vehicle: carboxymethylcellulose (CMC)): 168 % of control | T/C (dose: 54.0 mg/kg/injection, schedule: Q01DX001 (ip), vehicle: carboxymethylcellulose (CMC)): 289 % of control | T/C (dose: 62.0 mg/kg/injection, schedule: Q01DX001 (ip), vehicle: carboxymethylcellulose (CMC)): 218 % of control and 304 % of control | T/C (dose: 72.0 mg/kg/injection, schedule: Q01DX001 (ip), vehicle: carboxymethylcellulose (CMC)): 289 % of control | T/C (dose: 90.0 mg/kg/injection, schedule: Q01DX001 (ip), vehicle: carboxymethylcellulose (CMC)): 295 % of control | T/C (dose: 93.0 mg/kg/injection, schedule: Q01DX001 (ip), vehicle: carboxymethylcellulose (CMC)): 177 % of control | T/C (dose: 108.0 mg/kg/injection, schedule: Q01DX001 (ip), vehicle: carboxymethylcellulose (CMC)): 307 % of control | T/C (dose: 125.0 mg/kg/injection, schedule: Q01DX001 (ip), vehicle: carboxymethylcellulose (CMC)): 175 % of control | T/C (dose: 135.0 mg/kg/injection, schedule: Q01DX001 (ip), vehicle: carboxymethylcellulose (CMC)): 306 % of control | T/C (dose: 187.0 mg/kg/injection, schedule: Q01DX001 (ip), vehicle: carboxymethylcellulose (CMC)): 107 % of control | T/C (dose: 207.0 mg/kg/injection, schedule: Q01DX001 (ip), vehicle: carboxymethylcellulose (CMC)): 242 % of control

OCCNc1ccccc1
T/C [4]: 93 % of control | T/C [5]: 101 % of control

C=C(C)C1(Cc2ccccc2)C(=O)NC(=S)NC1=O
T/C (dose: 9.38 mg/kg/injection, schedule: Q01DX001 (ip), vehicle: saline): 91 % of control | T/C (dose: 10.0 mg/kg/injection, schedule: Q01DX001 (ip), vehicle: saline): 102 % of control

O=C(Nc1ccc(S(=O)(=O)F)cc1)OCc1ccc([N+](=O)[O-])cc1
T/C [6]: 105 % of control | T/C [7]: 95 % of control | T/C [8]: 100 % of control

COc1ccc(CCCNCCCCCCNCCCc2ccc(OC)cc2)cc1
T/C (dose: 25.0 mg/kg/injection, schedule: Q01DX009 (ip), vehicle: Klucel (hydroxypropylcellulose) (HPC)): 104 % of control | T/C (dose: 50.0 mg/kg/injection, schedule: Q01DX009 (ip), vehicle: Klucel (hydroxypropylcellulose) (HPC)): 93 % of control | T/C (dose: 50.0 mg/kg/injection, schedule: Q04DX002 (ip), vehicle: Klucel (hydroxypropylcellulose) (HPC)): 96 % of control | T/C (dose: 100.0 mg/kg/injection, schedule: Q01DX009 (ip), vehicle: Klucel (hydroxypropylcellulose) (HPC)): 86 % of control | T/C (dose: 100.0 mg/kg/injection, schedule: Q04DX002 (ip), vehicle: Klucel (hydroxypropylcellulose) (HPC)): 96 % of control

Cc1ccccc1NC(=O)c1ccccc1
T/C [1]: 100 % of control | T/C [2]: 98 % of control | T/C [3]: 98 % of control

O=C1C2CC3C=CC1C(C3)C2 (stereo unspecified) (tested in a mixture with another compound)
T/C (dose: 100.0 mg/kg/injection, schedule: Q01DX001 (ip), vehicle: Klucel (hydroxypropylcellulose) (HPC)): 104 % of control | T/C (dose: 200.0 mg/kg/injection, schedule: Q01DX001 (ip), vehicle: Klucel (hydroxypropylcellulose) (HPC)): 103 % of control | T/C (dose: 400.0 mg/kg/injection, schedule: Q01DX001 (ip), vehicle: Klucel (hydroxypropylcellulose) (HPC)): 97 % of control

CCN(CC)C(=O)Oc1cccc(NC(=O)OC)c1
T/C [6]: 94 % of control | T/C [7]: 94 % of control | T/C [8]: 100 % of control

COC(=O)C1=CC2c3ccccc3C1c1ccccc12
T/C [9]: 89 % of control | T/C [10]: 105 % of control | T/C [11]: 98 % of control

C=C(C(=C)C(=O)O)C(=O)O
T/C [4]: 101 % of control | T/C (dose: 100.0 mg/kg/injection, schedule: Q01DX009 (ip), vehicle: saline): 98 % of control | T/C [5]: 101 % of control | T/C (dose: 200.0 mg/kg/injection, schedule: Q01DX009 (ip), vehicle: saline): 107 % of control | T/C (dose: 400.0 mg/kg/injection, schedule: Q01DX001 (ip), vehicle: saline): 98 % of control | T/C (dose: 400.0 mg/kg/injection, schedule: Q01DX009 (ip), vehicle: saline): 102 % of control

O=C(O)CC1(CC(=O)O)CCCCC1
T/C [9]: 90 % of control | T/C [10]: 95 % of control | T/C [11]: 92 % of control
